Holding throughout (assay type): cell-based, human
Assay [1] relates to HTT mRNA. Put plainly: Splicing RT-qPCR assay, HTT canonical (CJ) and alternative (AJ) junction mRNA. To be noted: A673 or K562 cells, 24 hours compound treatment; for pIC50: read-out: HTT CJ (IC50, decrease in canonical junction mRNA); for AC50: read-out: HTT AJ (AC50, increase in alternative junction mRNA). In short, it runs like this:
(§1)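 Canonical (CJ) and alternative-exon (AJ) junction mRNAs quantified by one-step RT-qPCR in cell lysates, normalized to housekeeping PPIA for A673 and GAPDH or GUSB for K562. Cells were exposed 24 h at 37 °C to 11-point 3-fold compound series from 10 uM final, with DMSO at or below 0.25%.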
Background: In qPCR the cycle at which signal appears reflects the starting amount.

Assay [2] relates to MYB mRNA. Put plainly: Splicing RT-qPCR assay, MYB canonical (CJ) and alternative (AJ) junction mRNA. To be noted: for AC50: read-out: MYB AJ (AC50, increase in alternative junction mRNA). In short, it runs like this:
as §1

Assay [3] deals with SMN2 mRNA. Description: Splicing RT-qPCR gene panel, SMN2 canonical junction (CJ) mRNA. The settings on record: Tables 4A/4B, read-out: SMN2 (IC50, decrease in CJ mRNA, gene panel). In short, it runs like this:
(§2)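 A673 or K562 cells treated 24 h at 37° C. with an 11-point 3-fold dilution series (top 10 uM, ≤0.25% DMSO). Lysates analysed by one-step RT-qPCR for canonical exon-exon junction transcripts, normalized to GAPDH, GUSB or PPIA and DMSO control (2^(−ΔΔCt)), then converted to percentage response.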

In assay [4] the test system is Target C mRNA. Put plainly: Splicing RT-qPCR gene panel, Target C canonical junction (CJ) mRNA. To be noted: Tables 4A/4B, read-out: Target C (IC50, decrease in CJ mRNA, gene panel). Put shortly:
as §2

Assay [5] concerns HTT mRNA. Put plainly: Splicing RT-qPCR gene panel, HTT canonical junction (CJ) mRNA. The settings on record: Tables 4A/4B, read-out: HTT (IC50, decrease in CJ mRNA, gene panel). Put shortly:
as §2

Where [6] appears, read: Homo sapiens, 24 h, A673 or K562 cells, 24 hours compound treatment, RT-qPCR.
Setting [7] is: Homo sapiens, 24 h, A673 or K562 cells, 24 hours compound treatment, RT-qPCR, read-out: MYB CJ (IC50, decrease in canonical junction mRNA).
[8] abbreviates: Homo sapiens, Tables 4A/4B, canonical junction qPCR panel, read-out: MYB (IC50, decrease in CJ mRNA, gene panel).

pIC50: −log10 of the molar value. Read-outs that look alike come from different tables or passages of the source.

A word on the pIC50: it is −log10 of the IC50, conventionally taken in molar units. The term AC50 denotes the midpoint of the concentration-response curve, whichever way the signal moves. Regarding `Cc1cn2cc(NC(=O)c3ccc(N4CCNC[C@H]4C)c4cn(C)nc34)cc(F)c2n1` [Compound 447, N-{8-fluoro-2-methylimidazo[1,2-a]pyridin-6-yl}-2-methyl-4-[(2R)-2-methylpiperazin-1-yl]indazole-7-carboxamide], the pIC50 in assay [1] (Homo sapiens, 24 h) is 6.00 to 7.00; in assay [2] (setting [7]), more than 7.00; in assay [2] (setting [8]), 6.00 to 7.00; in assay [3] (Homo sapiens), more than 7.00; in assay [4] (Homo sapiens), 5.00 to 6.00; in assay [5] (Homo sapiens) it was 5.00 to 6.00. Also, the concentration at half-maximal activity (AC50) in assay [1] (Homo sapiens) was 0.1 to 1 µM; in assay [2] (setting [6]), less than 0.1 µM.

Regarding `CNC1CCN(c2ccc(C(=O)Nc3cc(F)c4nc(C)cn4c3)c3nn(C)cc23)CC1` [Compound 448, N-{8-fluoro-2-methylimidazo[1,2-a]pyridin-6-yl}-2-methyl-4-[4-(methylamino)piperidin-1-yl]indazole-7-carboxamide], the pIC50 in assay [1] (Homo sapiens, 24 h) was 6.00 to 7.00; in assay [2] (setting [7]), more than 7.00; in assay [2] (setting [8]) it was more than 7.00; in assay [3] (Homo sapiens) it was more than 7.00; in assay [4] (Homo sapiens) it was 5.00 to 6.00; in assay [5] (Homo sapiens), 6.00 to 7.00. Moreover, the AC50 in assay [1] (Homo sapiens) is 1 to 10 µM; in assay [2] (setting [6]), less than 0.1 µM.

As for `CCn1cc2c(N3CCN(C)CC3)ccc(C(=O)Nc3cc(F)c4nc(CO)oc4c3)c2n1` [Compound 450, 2-ethyl-N-[4-fluoro-2-(hydroxymethyl)-1,3-benzoxazol-6-yl]-4-(4-methylpiperazin-1-yl) indazole-7-carboxamide], the pIC50 in assay [1] (Homo sapiens, 24 h) was less than 5.00; in assay [2] (setting [7]) it was less than 5.00; in assay [2] (setting [8]), more than 7.00; in assay [3] (Homo sapiens), more than 7.00; in assay [4] (Homo sapiens), 5.00 to 6.00; in assay [5] (Homo sapiens) it was 6.00 to 7.00. Besides, the AC50 in assay [1] (Homo sapiens) and in assay [2] (setting [6]) was more than 10 µM throughout.

`Cc1cn2cc(NC(=O)c3ccc(N4CCNCC4)c4cn(C)nc34)c(=O)n(C)c2n1` [Compound 451, N-{2,8-dimethyl-7-oxoimidazo[1,2-a]pyrimidin-6-yl}-2-methyl-4-(piperazin-1-yl) indazole-7-carboxamide]: the pIC50 in assay [1] (Homo sapiens, 24 h) was less than 5.00; in assay [2] (setting [7]), 5.00 to 6.00; in assay [2] (setting [8]), less than 5.00; in assay [3] (Homo sapiens), less than 5.00; in assay [4] (Homo sapiens) it was less than 5.00; in assay [5] (Homo sapiens), less than 5.00. Moreover, the AC50 in assay [1] (Homo sapiens) was more than 10 µM; in assay [2] (setting [6]), 1 to 10 µM.

Consider `Cc1cn2cc(NC(=O)c3ccc(N4CCNCC4)c4cn(C)nc34)c(C#N)cc2n1` [Compound 452, N-{7-cyano-2-methylimidazo[1,2-a]pyridin-6-yl}-2-methyl-4-(piperazin-1-yl) indazole-7-carboxamide], for which the AC50 is more than 10 µM in assay [1] and 1 to 10 µM in assay [2] (A673 or K562 cells, 24 hours compound treatment, RT-qPCR). Further, the pIC50 is less than 5.00 in assay [1]; 5.00 to 6.00 in assay [2] (A673 or K562 cells, 24 hours compound treatment, RT-qPCR, read-out: MYB CJ (IC50, decrease in canonical junction mRNA)); 5.00 to 6.00 in assay [2] (Tables 4A/4B, canonical junction qPCR panel, read-out: MYB (IC50, decrease in CJ mRNA, gene panel)); 6.00 to 7.00 in assay [3]; less than 5.00 in assay [4]; less than 5.00 in assay [5].

`CCn1cc2c(N3CCNC(CF)C3)ccc(C(=O)Nc3cc(F)c4nc(C)cn4c3)c2n1` (stereo not shown) [Compound 453, 2-ethyl-N-{8-fluoro-2-methylimidazo[1,2-a]pyridin-6-yl}-4-[3-(fluoromethyl)piperazin-1-yl]indazole-7-carboxamide]: the pIC50 was less than 5.00 in assay [1] (Homo sapiens, 24 h); 5.00 to 6.00 in assay [2] (setting [7]); 5.00 to 6.00 in assay [2] (setting [8]); 6.00 to 7.00 in assay [3] (Homo sapiens); less than 5.00 in assay [4] (Homo sapiens); less than 5.00 in assay [5] (Homo sapiens). Besides, the values for the AC50 in assay [1] (Homo sapiens) and in assay [2] (setting [6]) were more than 10 µM and 1 to 10 µM, respectively.

Regarding `CCn1cc2c(C3OCC(C)(N)CO3)ccc(C(=O)Nc3cc(F)c4nc(C)cn4c3)c2n1` (stereo not shown) [Compound 454, 4-(5-amino-5-methyl-1,3-dioxan-2-yl)-2-ethyl-N-{8-fluoro-2-methylimidazo[1,2-a]pyridin-6-yl}indazole-7-carboxamide], the pIC50 in assay [1] (Homo sapiens, 24 h) is 5.00 to 6.00; in assay [2] (setting [7]), 6.00 to 7.00; in assay [2] (setting [8]) it was 5.00 to 6.00; in assay [3] (Homo sapiens), more than 7.00; in assay [4] (Homo sapiens), less than 5.00; in assay [5] (Homo sapiens) it was less than 5.00. Further, the half-maximal activity concentration (AC50) in assay [1] (Homo sapiens) and in assay [2] (setting [6]) was 1 to 10 µM throughout.

Turning to `CCn1cc2c(C3OCC(N)CO3)ccc(C(=O)Nc3cc(F)c4nc(C)cn4c3)c2n1` (stereo not shown) [Compound 455, 4-(5-amino-1,3-dioxan-2-yl)-2-ethyl-N-{8-fluoro-2-methylimidazo[1,2-a]pyridin-6-yl}indazole-7-carboxamide], the pIC50 in assay [1] (Homo sapiens, 24 h) was less than 5.00; in assay [2] (setting [7]), less than 5.00; in assay [2] (setting [8]), 6.00 to 7.00; in assay [3] (Homo sapiens), 6.00 to 7.00; in assay [4] (Homo sapiens), 5.00 to 6.00; in assay [5] (Homo sapiens) it was 5.00 to 6.00. For the same compound, the AC50 in assay [1] (Homo sapiens) and in assay [2] (setting [6]) was more than 10 µM each time.

For the compound `COc1c(NC(=O)c2ccc(N3CCNCC3)c3cn(C)nc23)cc(C)c2nn(C)cc12` [Compound 456], the negative logarithm of the IC50 (pIC50) in assay [1] (Homo sapiens, 24 h) is less than 5.00; in assay [2] (setting [7]), less than 5.00; in assay [2] (setting [8]), less than 5.00; in assay [3] (Homo sapiens) it was less than 5.00; in assay [4] (Homo sapiens), less than 5.00; in assay [5] (Homo sapiens), less than 5.00. Also, the AC50 in assay [1] (Homo sapiens) was more than 10 µM; in assay [2] (setting [6]), 1 to 10 µM.

For the compound `Cc1cn2c(n1)CCC(NC(=O)c1ccc(N3CCNCC3)c3cn(C)nc13)C2` (stereo not shown) [Compound 457, 2-methyl-N-{2-methyl-5H,6H,7H,8H-imidazo[1,2-a]pyridin-6-yl}-4-(piperazin-1-yl) indazole-7-carboxamide], the pIC50 is less than 5.00 in assay [1] (Homo sapiens, 24 h); less than 5.00 in assay [2] (setting [7]); less than 5.00 in assay [2] (setting [8]); less than 5.00 in assay [3] (Homo sapiens); less than 5.00 in assay [4] (Homo sapiens); less than 5.00 in assay [5] (Homo sapiens). The AC50 in assay [1] (Homo sapiens) and in assay [2] (setting [6]) was more than 10 µM each time.

Regarding `Cc1nc2c(F)cc(NC(=O)c3ccc(N4CCNCC4)c4cn(C)nc34)cn2c1C` [Compound 458, N-{8-fluoro-2,3-dimethylimidazo[1,2-a]pyridin-6-yl}-2-methyl-4-(piperazin-1-yl) indazole-7-carboxamide], the pIC50 was more than 7.00 in assay [1] (Homo sapiens, 24 h); more than 7.00 in assay [2] (setting [7]); less than 5.00 in assay [2] (setting [8]); less than 5.00 in assay [3] (Homo sapiens); less than 5.00 in assay [4] (Homo sapiens); less than 5.00 in assay [5] (Homo sapiens). Further, the results for the half-maximal activity concentration (AC50) in assay [1] (Homo sapiens) and in assay [2] (setting [6]) were 0.1 to 1 µM and less than 0.1 µM, respectively.

Consider `CCNC1CCN(c2ccc(C(=O)Nc3cn4cc(C)nc4c(F)c3OC)c3nn(C)cc23)CC1` [Compound 459, 4-[4-(ethylamino)piperidin-1-yl]-N-{8-fluoro-7-methoxy-2-methylimidazo [1,2-a]pyridin-6-yl}-2-methylindazole-7-carboxamide], for which the negative-log IC50 (pIC50) in assay [1] (Homo sapiens, 24 h) is 6.00 to 7.00; in assay [2] (setting [7]), more than 7.00; in assay [2] (setting [8]), more than 7.00; in assay [3] (Homo sapiens), more than 7.00; in assay [4] (Homo sapiens) it was 5.00 to 6.00; in assay [5] (Homo sapiens), more than 7.00. For the same compound, the AC50 in assay [1] (Homo sapiens) is 0.1 to 1 µM; in assay [2] (setting [6]) it was less than 0.1 µM.

Regarding `CCNC1CCN(c2cc(F)c(C(=O)Nc3cc(F)c4nc(C)cn4c3)c3nn(C)cc23)CC1` [Compound 460], the pIC50 in assay [1] (Homo sapiens, 24 h) is more than 7.00; in assay [2] (setting [7]) it was more than 7.00; in assay [2] (setting [8]), more than 7.00; in assay [3] (Homo sapiens), more than 7.00; in assay [4] (Homo sapiens), 6.00 to 7.00; in assay [5] (Homo sapiens), 6.00 to 7.00. Moreover, the AC50 in assay [1] (Homo sapiens) is 0.1 to 1 µM; in assay [2] (setting [6]), less than 0.1 µM.

Take `Cc1cn2cc(NC(=O)c3ccc(N4CC[C@@H](NC5(CF)CC5)C4)c4cn(C)nc34)cc(F)c2n1` [Compound 461, N-{8-fluoro-2-methylimidazo[1,2-a]pyridin-6-yl}-4-[(3R)-3-{[1-(fluoromethyl)cyclopropyl]amino}pyrrolidin-1-yl]-2-methylindazole-7-carboxamide]: the negative-log IC50 (pIC50) is 5.00 to 6.00 in assay [1] (Homo sapiens, 24 h); more than 7.00 in assay [2] (setting [7]); more than 7.00 in assay [2] (setting [8]); more than 7.00 in assay [3] (Homo sapiens); less than 5.00 in assay [4] (Homo sapiens); 5.00 to 6.00 in assay [5] (Homo sapiens). Besides, the AC50 was more than 10 µM in assay [1] (Homo sapiens) and 0.1 to 1 µM in assay [2] (setting [6]).

Values taken from patent US20250154169A1, “COMPOUNDS AND METHODS FOR MODULATING SPLICING” (REMIX THERAPEUTICS INC., priority 2021, published 2025).
